One block for each compound: values may come before it.
Legend:
[1] = molecular target: T1, histamine H2 -receptors (isolated guinea pig right atria) (Cavia porcellus, UniProt P47747); assay: Histamine H2-receptor antagonism, isolated guinea pig atria assay; type: cell-based, guinea pig (male Hartley strain); conditions: for Histamine ED50 With 95% Confidence Limits: histamine ED50 in presence of test compound 3 × 10^-5 M, 30 minute incubation; for Concentration-Response Curve Displacement Factor / Activity Ratio Relative to Cimetidine: test compound 3 × 10^-5 M; for Activity Ratio Relative to Cimetidine: cimetidine = 1.0
T1 construct: The spontaneously beating right atrium was dissected free from other tissues; from tissue; host or cells: isolated spontaneously beating right atrium of male Hartley guinea pigs
T1 sequence (P47747 whole entry): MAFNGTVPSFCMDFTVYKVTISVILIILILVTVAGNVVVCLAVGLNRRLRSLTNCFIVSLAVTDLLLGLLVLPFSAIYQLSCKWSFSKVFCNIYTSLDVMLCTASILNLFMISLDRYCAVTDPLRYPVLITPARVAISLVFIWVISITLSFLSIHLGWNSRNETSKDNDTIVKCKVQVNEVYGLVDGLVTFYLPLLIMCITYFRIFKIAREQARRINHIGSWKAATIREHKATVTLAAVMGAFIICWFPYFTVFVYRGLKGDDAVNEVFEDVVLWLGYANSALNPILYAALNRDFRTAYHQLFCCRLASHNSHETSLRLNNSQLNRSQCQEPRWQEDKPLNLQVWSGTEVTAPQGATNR
Description: Subsequent investigations by Hughes and Coret, Proc. Soc. […] Black et al., Agents and Actions, 3, 133 (1973) and Brimblecombe et al., Fed. […] The present comparative studies were carried out using a modification of the procedure reported by Reinhardt et al., Agents and Actions, 4, 217 (1974).
Male Hartley strain guinea pigs (350-450 gm.) were sacrificed by a blow on the head. The heart was excised and placed in a Petri dish of oxygenated (95% O2, 5% CO2) modified Krebs solution (g./liter: NaCl 6.6, KCl 0.35, MgSO4.7 H2 O 0.295, KH2 PO4 0.162, CaCl2 0.238, NaHCO3 2.1 and dextrose 2.09). The spontaneously beating right atrium was dissected free from other tissues and a silk thread (4-0) attached to each end. The atrium was suspended in a 20 ml. muscle chamber containing oxygenated modified Krebs solution maintained at 32° C. Atrial contractions were recorded isometrically by means of a Grass FT 0.03 force displacement transducer and recordings of contractile force and rate were made with a Beckman RP Dynograph.
A resting tension of 1 g. was applied to the atrium and it was allowed to equilibrate for 1 hour.
Concentration-response curve displacement factors were calculated as follows: [formula] […] [formula]

gastric acid output [2] = assay: Gastric antisecretory activity in the two hour pylorus ligated (Shay) rat; type: in vivo, rat (male Long Evans); conditions: for Percent Inhibition Acid Output / ED50: 2 h; for ED50: two hour pylorus ligated rat; for Potency Ratio: relative to cimetidine = 1.00
Source text: The pyloric ligation procedure in the rat was designed by Shay et al., Gastroenterology, 5, 53 (1945) for the study of perforating gastric ulcers; however, as the method became known, it was also employed as a means of studying rat gastric secretion, Shay et al., Gastroenterology, 26, 906 (1954), Brodie, D. A., Am. J. Dig. Dis., 11, 231 (1966). A modification of this procedure is presently used to evaluate compounds for gastric antisecretory activity.
Male Long Evans rats, 280-300 gm., are used. The aimals are placed in individual cages and fasted for 24 hours with free access to water. Under ther anesthesia, the stomach is reached through a midline incision, and a cotton-thread ligature is placed around the pylorus. […] All compounds are solubilized with one equivalent of HCl and brought to the proper volume with water. The animals are returned to their cages from which the water bottles have been removed and two hours later are sacrificed with ether. The stomach is removed and the two hour gastric collection is drained into a graduated test tube for volume determination. Titratable acidity is measured by titrating a one ml. sample to pH 7.0 with 0.02 N NaOH, using an Autoburet and an electrometric pH meter (Radiometer). Titratable acid output is calculated in microequivalents by multiplying the volume in milliliters by the acid concentration in milliequivalents per liter. The percent inhibition of acid output is calculated as follows [formula]

gastric acid output [3] = assay: Gastric antisecretory activity in the gastric fistula dog; type: in vivo, beagle dogs; conditions: for Percent Inhibition Acid Output: histamine infusion
Description: Thomas type [Thomas, J. E., Proc. Soc. Exp. Biol. Med., 46, 260 ([…])] stainless steel cannulae are inserted into the stomachs of beagle dogs (10-12 kg.) just orad to the pyloric gland area near the greater curvature to provide a chronic gastric fistula. Animals are allowed to recover for at least two months before any testing is done. Dogs are fasted overnight (~18 hours) with water ad lib prior to each experiment. The dogs are placed in a sling and an eight inch inside needle catheter (C. R. Baird, Inc.) with a two inch 17 gauge needle is inserted into a leg vein for purposes of drug administration. Gastric secretions are collected every 15 minutes by gravity drainage from the opened cannula. […] A modification of the procedure described by Grossman and Konturek, Gastroenterology, 66, 517 (1974) was followed. […] Each 15 minute sample of gastric juice is measured to the nearest 0.5 ml. and titratable acidity against 0.02 N NaOH (endpoint pH 7.0) is measured with an Autoburet and pH meter (radiometer). The percent inhibition of acid output is calculated as described in the pylorus ligated rat procedure.

histamine H2 -receptors = conditions: isolated guinea pig right atria; cited from earlier work
peptic ulcer disease = conditions: clinical evaluation; cited from earlier work
gastric secretion = conditions: cited from earlier work
H2 receptors = conditions: cited from earlier work
[4] = clinical; cited from earlier work

Histamine ED50 With 95% Confidence Limits [1]: 32.70 µg/mL | activity relative to Compound XVI ([1]; isolated guinea pig right atria, vs Compound XVI): about 4.80 times | Concentration-Response Curve Displacement Factor [1]: 181.67
Compound: C#CCNC(=C[N+](=O)[O-])NCCSCc1ccc(CN(C)C)o1 [BL-5966, 1-Nitro-2-(2-propynylamino)-2-{2-[(5-dimethylaminomethyl-2-furyl)methylthio]ethylamino}ethylene]
potency as histamine H2 receptor antagonist (in words) ([1]; isolated guinea pig atria): more potent than either cimetidine or Compound XVI | Percent Inhibition Acid Output (gastric acid output [2]; 0.625 μ Mole/kg ip): 27% | Percent Inhibition Acid Output (gastric acid output [2]; 1.25 μ Mole/kg ip): 36% | Percent Inhibition Acid Output (gastric acid output [2]; 2.5 μ Mole/kg ip): 59% | Percent Inhibition Acid Output (gastric acid output [2]; 5 μ Mole/kg ip): 83% | ED50 (gastric acid output [2]; ip): 1.8 µmol/kg | Potency Ratio (gastric acid output [2]; ip): 5.81 times | potency relative to Compound XVI (gastric acid output [2]; ip, vs Compound XVI): 2.52 times | potency as inhibitor of gastric secretion (in words) (gastric acid output [2]; rats): more potent than either cimetidine or Compound XVI | Percent Inhibition Acid Output (gastric acid output [3]; 0.0469 μ Mole/kg iv): 32% | Percent Inhibition Acid Output (gastric acid output [3]; 0.0938 μ Mole/kg iv): 47% | Percent Inhibition Acid Output (gastric acid output [3]; 0.1875 μ Mole/kg iv): 46% | Percent Inhibition Acid Output (gastric acid output [3]; 0.375 μ Mole/kg iv): 90% | ED50 (gastric acid output [3]; Canis lupus familiaris, iv, gastric fistula dog): 0.12 µmol/kg | potency as inhibitor of gastric secretion (in words) (gastric acid output [3]; dogs): more potent than either cimetidine or Compound XVI | Potency Ratio (gastric acid output [3]; iv, relative to cimetidine = 1.0): 11.5 times

Histamine ED50 With 95% Confidence Limits [1]: 4.28 µg/mL | Concentration-Response Curve Displacement Factor [1]: 23.78 | Activity Ratio Relative to Cimetidine [1]: 0.94 times | Activity Ratio Relative to Cimetidine ([1]; listed as BL-5933): about 0.94 times
Compound: C#CCNC(=NCCSCc1ccc(CN(C)C)o1)NC#N [BL-5993, N-Cyano-N'-(2-propyn-1-yl)-N"-{2-[(5-dimethylaminomethyl-2-furyl)methylthio]ethyl}guanidine]
Percent Inhibition Acid Output (gastric acid output [2]; 10 μ Mole/kg ip): 34% | Percent Inhibition Acid Output (gastric acid output [2]; 20 μ Mole/kg ip): 71% | ED50 (gastric acid output [2]; ip): 12.5 µmol/kg | Potency Ratio (gastric acid output [2]; ip): 0.83 times

Compound: CNC(=S)NCCCCc1cnc[nH]1 [Burimamide]
H2-receptor mediated effect in atria (in words) (histamine H2 -receptors): competitive antagonist of these receptors | clinical effectiveness (peptic ulcer disease): first clinically effective H2 -receptor antagonist | inhibition of gastric secretion (gastric secretion; animals and man): inhibits gastric secretion in animals and man

Compound: CN=C(NC#N)NCCSCc1nc[nH]c1C [Cimetidine]
H2 antagonist potency/effectiveness (in words) (H2 receptors): as effective an H2 antagonist as metiamide | toxicity (agranulocytosis) [4]: without producing agranulocytosis | Histamine ED50 With 95% Confidence Limits [1]: 4.80 µg/mL | Concentration-Response Curve Displacement Factor [1]: 25.26 | clinical effectiveness (peptic ulcer disease): effective therapeutic agent in the treatment of peptic ulcer disease

Compound: CNC(=C[N+](=O)[O-])NCCSCc1ccc(CN(C)C)o1 [Compound XVI, reference compound]
Histamine ED50 With 95% Confidence Limits [1]: 11.97 µg/mL | Concentration-Response Curve Displacement Factor [1]: 38.61 | Percent Inhibition Acid Output (gastric acid output [2]; 5 μ Mole/kg ip): 42% | Percent Inhibition Acid Output (gastric acid output [2]; 10 μ Mole/kg ip): 77% | Percent Inhibition Acid Output (gastric acid output [2]; 20 μ Mole/kg ip): 89% | ED50 (gastric acid output [2]; ip): 4.52 µmol/kg | Potency Ratio (gastric acid output [2]; ip): 2.31 times

Compound: NCCc1c[nH]cn1 [Histamine]
H2-receptor mediated effect in atria (in words) (histamine H2 -receptors): concentration-related increases in the contractile rate

Compound: CNC(=S)NCCSCc1nc[nH]c1C [Metiamide]
H2 antagonist potency/effectiveness (in words) (H2 receptors): more potent than burimamide | toxicity (agranulocytosis) [4]: toxicity (agranulocytosis) | oral activity (gastric secretion; man, oral): orally active in man

Reference: US4203909A, “Furan compounds” (Bristol-Myers Company, priority 1978, dated 1980)
